These results are taken from PubChem BioAssay (NCI).

Some test systems named below: SR leukemia; LOX IMVI melanoma; SK-MEL-28 melanoma; RXF 393 renal; OVCAR-5 ovarian; UO-31 renal; DU-145 prostate; M14 melanoma; OVCAR-8 ovarian; 786-0 renal; HCT-116 colon; MDA-N; TK-10 renal; A498 renal; NCI-H522 lung; OVCAR-4 ovarian; SW-620 colon; SK-MEL-2 melanoma; KM12 colon; NCI-H460 lung.
Assay in all cases: DTP human tumour cell line panel, 48 h

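48-hour exposure; five concentrations; linearly interpolated endpoints. Definition used: TGI = concentration required for complete inhibition of growth.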

The TGI is the concentration at which net growth stops. Read a low TGI as more potent growth arrest. Consider `C=CCCCC1SC2=C(CC)CCCN2C1=O` (configuration not stated), for which the total growth inhibition concentration (TGI) in the assay with SR leukemia, in the assay on LOX IMVI melanoma, in the assay with SK-MEL-28 melanoma, in the assay with RXF 393 renal, in the assay with OVCAR-5 ovarian and in the assay with UO-31 renal was above 100 µM each time. Moreover, the TGI with DU-145 prostate, with M14 melanoma, in the assay with OVCAR-8 ovarian, in the assay with 786-0 renal, with HCT-116 colon and with MDA-N was above 100 µM in each case. In addition, the TGI in the assay with TK-10 renal, in the assay with A498 renal, with NCI-H522 lung, in the assay on OVCAR-4 ovarian, in the assay on SW-620 colon and in the assay on SK-MEL-2 melanoma was above 100 µM each time. In addition, in the assay with KM12 colon, the TGI was above 100 µM.
`O=C1C(Cl)=C(N2C(=O)CCCC2=O)C(=O)c2ccccc21`: the TGI with SR leukemia was 57.1 µM; in the assay on LOX IMVI melanoma, 42.4 µM; with SK-MEL-28 melanoma, 33.4 µM; in the assay with RXF 393 renal it was 31.9 µM; in the assay on OVCAR-5 ovarian, 38.1 µM; in the assay on UO-31 renal it was 23 µM. The TGI stood at 30.2 µM in the assay with DU-145 prostate; 27.8 µM with NCI-H460 lung; 37.5 µM in the assay with M14 melanoma; 23.9 µM with OVCAR-8 ovarian; 33 µM in the assay on 786-0 renal; 32 µM in the assay on HCT-116 colon. The total growth inhibition concentration (TGI) in the assay with MDA-N was 31 µM; in the assay with TK-10 renal, 31.3 µM; in the assay on A498 renal, 33.4 µM; in the assay on NCI-H522 lung, 4.53 µM; in the assay with SW-620 colon, 48.3 µM; in the assay on SK-MEL-2 melanoma, 49 µM. This compound also yielded a TGI with KM12 colon above 100 µM.
In the case of `O=C(O)c1cc2cc(c1)N=Cc1ccccc1OCc1cccc(n1)COc1ccccc1C=N2`, the TGI in the assay with SR leukemia, in the assay on SK-MEL-28 melanoma, with RXF 393 renal, with OVCAR-5 ovarian, with UO-31 renal and in the assay on DU-145 prostate was above 25 µM in each case. Moreover, the total growth inhibition concentration (TGI) was above 25 µM with NCI-H460 lung; above 25 µM in the assay on M14 melanoma; above 25 µM in the assay on OVCAR-8 ovarian; above 25 µM in the assay on 786-0 renal; above 25 µM in the assay on HCT-116 colon; 9.82 µM in the assay with MDA-N. For the same compound, the TGI in the assay on TK-10 renal, with A498 renal, in the assay with NCI-H522 lung, with OVCAR-4 ovarian, with SW-620 colon and with SK-MEL-2 melanoma was above 25 µM in each case. In the assay with KM12 colon, this compound registered a concentration for total growth inhibition (TGI) above 25 µM.
On to `CCOC(=O)C1=C(C)OC(=O)[C@@]2(OC)C=C(Cl)[C@@]12C`, for which the TGI with SR leukemia, in the assay with LOX IMVI melanoma, with SK-MEL-28 melanoma, in the assay with RXF 393 renal, with OVCAR-5 ovarian and with UO-31 renal was above 100 µM in each case. In addition, the TGI in the assay on DU-145 prostate, in the assay with NCI-H460 lung, in the assay on M14 melanoma, in the assay on OVCAR-8 ovarian, with 786-0 renal and in the assay on HCT-116 colon was above 100 µM each time. Further, the TGI in the assay with MDA-N, in the assay on TK-10 renal, in the assay with A498 renal, in the assay on NCI-H522 lung, with OVCAR-4 ovarian and with SW-620 colon was above 100 µM in each case. Moreover, the TGI in the assay with KM12 colon is above 100 µM.
Take `N#Cc1c(NCCc2ccc(F)cc2)c2ccccc2n2c1nc1ccccc12`: the TGI in the assay with SR leukemia was above 100 µM; in the assay with LOX IMVI melanoma, above 100 µM; with SK-MEL-28 melanoma it was above 100 µM; in the assay with RXF 393 renal, 65.7 µM; in the assay with OVCAR-5 ovarian it was above 100 µM; in the assay on UO-31 renal, 39.5 µM. Also, the TGI was 98.1 µM with DU-145 prostate; above 100 µM with NCI-H460 lung; above 100 µM with M14 melanoma; 25.4 µM in the assay on OVCAR-8 ovarian; 17.6 µM in the assay with 786-0 renal; above 100 µM in the assay on HCT-116 colon. The TGI in the assay on MDA-N is above 100 µM; with TK-10 renal, 60.8 µM; in the assay with A498 renal, 53.1 µM; with OVCAR-4 ovarian it was 9.16 µM; in the assay on SW-620 colon, above 100 µM; in the assay with SK-MEL-2 melanoma it was above 100 µM. This compound also came in with a TGI in the assay with KM12 colon above 100 µM.
Consider `Nc1c(-c2nc3ccccc3o2)sc(=S)n1-c1ccc(Cl)cc1`, for which the TGI was above 100 µM with SR leukemia; 37.7 µM in the assay on SK-MEL-28 melanoma; 66.8 µM with RXF 393 renal; above 100 µM in the assay on OVCAR-5 ovarian; above 100 µM with UO-31 renal; 32.9 µM in the assay on DU-145 prostate. Further, the TGI is above 100 µM with NCI-H460 lung; above 100 µM with M14 melanoma; 30.2 µM in the assay on OVCAR-8 ovarian; 22.9 µM in the assay with 786-0 renal; 29.3 µM in the assay with HCT-116 colon; above 100 µM in the assay with MDA-N. Further, the TGI was above 100 µM in the assay on TK-10 renal; 99.7 µM in the assay on A498 renal; 49.7 µM in the assay on NCI-H522 lung; 31.6 µM in the assay with OVCAR-4 ovarian; 47.8 µM in the assay on SK-MEL-2 melanoma; above 100 µM with KM12 colon.
`COc1cc(C=C2N=C(c3ccccc3)N(n3c(-c4ccccc4)nc4ccccc4c3=O)C2=O)cc(OC)c1OC`: the TGI in the assay with SR leukemia was above 100 µM; in the assay on LOX IMVI melanoma it was 41.3 µM; with SK-MEL-28 melanoma, 35.5 µM; with RXF 393 renal, 39.2 µM; with OVCAR-5 ovarian it was above 100 µM; in the assay with UO-31 renal, above 100 µM. Moreover, the TGI amounted to 79.9 µM with DU-145 prostate; 47.2 µM in the assay on NCI-H460 lung; 75.7 µM with M14 melanoma; 51.4 µM in the assay on OVCAR-8 ovarian; 45.9 µM in the assay with 786-0 renal; 48.3 µM in the assay on HCT-116 colon. In addition, the TGI is 92.6 µM in the assay with MDA-N; above 100 µM in the assay on TK-10 renal; 39.7 µM in the assay with NCI-H522 lung; 96.5 µM with OVCAR-4 ovarian; above 100 µM in the assay with SW-620 colon; 43.4 µM in the assay with SK-MEL-2 melanoma. Also, the TGI in the assay with KM12 colon came out at 46.3 µM.
